Data on 14 molecules can be found in patent publication US9682995B2, “Amino-substituted isothiazoles” (BAYER PHARMA AKTIENGESELLSCHAFT, priority 2013, dated 2017).

Structures are written as SMILES. Where only a bound is given, the exact number is not on record here.

For test [1], the system named is HeLa. As to the kind of experiment: Proliferation assay (crystal violet), HeLa. Type of test: cell-based. The conditions noted are these: Homo sapiens, 96 h, 4 days, read-out: Inhibition of proliferation IC50 HeLa. A digest of the protocol: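 Tumour cells seeded at 1000–5000 cells/well in medium with 10% FCS, dosed after 24 h at 0.001–10 μM (0.5% DMSO final) for 4 days. Cell number read by crystal-violet staining after glutaraldehyde fixation (A595), normalised to zero-point plate (0%) and untreated cells (100%); IC50 from 4-parameter fit.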

Test [2] concerns the target CDK2/CycE (Homo sapiens (Human), UniProt P24941). As to the kind of experiment: CDK2/CycE kinase assay (TR-FRET). Type of test: biochemical. The following applies: 10 μM ATP; read-out: CDK2 avg (IC50 [mol/l]). A digest of the protocol:
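GST-tagged human CDK2 and GST-CycE from Sf9 cells (~130 ng/ml) were preincubated with compound for 15 min at 22 °C. Reaction with 10 μM ATP and 0.75 μM biotinylated peptide (final) ran 25 min at 22 °C, pH 8.0. Phospho-peptide was read by TR-FRET (665/620 nm ratio, anti-pRB antibody, Eu donor) and normalised to no-enzyme and no-inhibitor controls.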
(Time-resolved FRET reads energy transfer from a long-lived donor to a nearby acceptor.)

With `Cc1nsc(Nc2cnc(C(=O)N(C)C)cn2)c1C(=O)Nc1ccc(F)c(F)c1` [Example 109, 5-({4-[(3,4-Difluorophenyl)carbamoyl]-3-methyl-1,2-thiazol-5-yl}amino)-N,N-dimethylpyrazine-2-carboxamide], the IC50 is 5 µM in test [1] and over 20 µM in test [2].

Turning to `Cc1nsc(Nc2ccc(C#N)cn2)c1C(=O)Nc1ccc(OC(C)C)nc1` [Example 110, 5-[(5-Cyanopyridin-2-yl)amino]-N-(6-isopropoxyridin-3-yl)-3-methyl-1,2-thiazole-4-carboxamide], the IC50 in test [1] is 1.5 µM; in test [2], over 20 µM.

On to `Cc1nsc(Nc2cc(C#N)ccn2)c1C(=O)Nc1ccc(Oc2ccccc2)nc1` [Example 111, 5-[(4-Cyanopyridin-2-yl)amino]-3-methyl-N-(6-phenoxypyridin-3-yl)-1,2-thiazole-4-carboxamide], for which the values for the IC50 in test [1] and in test [2] were 2.1 µM and over 20 µM, respectively.

Turning to `Cc1nsc(Nc2cnc3ccccc3n2)c1C(=O)Nc1ccc(Oc2ccccc2)nc1` [Example 112, 3-Methyl-N-(6-phenoxypyridin-3-yl)-5-(quinoxalin-2-ylamino)-1,2-thiazole-4-carboxamide], the IC50 was 2 µM in test [1] and over 20 µM in test [2].

For `Cc1nsc(Nc2cnc3ccccc3n2)c1C(=O)Nc1ccc(Oc2ccc(F)cc2F)nc1` [Example 113, N-[6-(2,4-Difluorophenoxy)pyridin-3-yl]-3-methyl-5-(quinoxalin-2-ylamino)-1,2-thiazole-4-carboxamide], the IC50 in test [1] was 0.88 µM; in test [2] it was over 20 µM.

Regarding `Cc1nsc(Nc2cc(C#N)ccn2)c1C(=O)Nc1ccc(Oc2ccc(F)cc2F)nc1` [Example 114, 5-[(4-Cyanopyridin-2-yl)amino]-N-[6-(2,4-difluorophenoxy)pyridin-3-yl]-3-methyl-1,2-thiazole-4-carboxamide], the IC50 was 1.1 µM in test [1] and over 20 µM in test [2].

On to `Cc1nsc(Nc2cnc3ccccc3n2)c1C(=O)Nc1ccc(OC2CCCCC2)nc1` [Example 115, N-[6-(Cyclohexyloxy)pyridin-3-yl]-3-methyl-5-(quinoxalin-2-ylamino)-1,2-thiazole-4-carboxamide], for which the IC50 is 1.3 µM in test [1] and over 20 µM in test [2].

For `COc1ccc(Oc2ccc(NC(=O)c3c(C)nsc3Nc3cnc4ccccc4n3)cn2)cc1` [Example 116, N-[6-(4-Methoxyphenoxy)pyridin-3-yl]-3-methyl-5-(quinoxaline-2-ylamino)-1,2-thiazole-4-carboxamide], the IC50 in test [1] is 3.2 µM; in test [2], over 20 µM.

For the molecule `COc1ccc(Oc2ccc(NC(=O)c3c(C)nsc3Nc3cc(C#N)ccn3)cn2)cc1` [Example 117, 5-[(4-Cyanopyridin-2-yl)amino]-N-[6-(4-methoxyphenoxy)pyridin-3-yl]-3-methyl-1,2-thiazole-4-carboxamide], the IC50 in test [1] is 3.2 µM; in test [2], over 20 µM.

On to `Cc1nsc(Nc2cc(C#N)ccn2)c1C(=O)Nc1ccc(OC2CCCCC2)nc1` [Example 118, 5-[(4-Cyanopyridin-2-yl)amino]-N-[6-(cyclohexyloxy)pyridin-3-yl]-3-methyl-1,2-thiazole-4-carboxamide], for which the IC50 in test [1] was 1.7 µM; in test [2], over 20 µM.

Take `CCOc1ccc(NC(=O)c2c(C)nsc2Nc2cnc3ccccc3n2)cn1` [Example 119, N-(6-Ethoxypyridin-3-yl)-3-methyl-5-(quinoxalin-2-ylamino)-1,2-thiazole-4-carboxamide]: the values for the IC50 in test [1] and in test [2] were 3.3 µM and over 20 µM, respectively.

Take `COc1ncc(NC(=O)c2c(C)nsc2Nc2ccc(C#N)cn2)cc1C` [Example 120, 5-[(5-Cyanopyridin-2-yl)amino]-N-(6-methoxy-5-methylpyridin-3-yl)-3-methyl-1,2-thiazole-4-carboxamide]: the IC50 was 1.9 µM in test [1] and over 20 µM in test [2].

Regarding `COc1ncc(NC(=O)c2c(C)nsc2Nc2cnc3ccccc3n2)cc1C` [Example 121, N-(6-Methoxy-5-methylpyridin-3-yl)-3-methyl-5-(quinoxalin-2-ylamino)-1,2-thiazole-4-carboxamide], the figures for the IC50 in test [1] and in test [2] were 3.3 µM and over 20 µM, respectively.

As for `Cc1nsc(Nc2cnc3ccccc3n2)c1C(=O)Nc1ccc(OC(C)C)nc1` [Example 122, N-(6-Isopropoxypyridin-3-yl)-3-methyl-5-(quinoxalin-2-ylamino)-1,2-thiazole-4-carboxamide], the IC50 was 1.8 µM in test [1] and over 20 µM in test [2].
